# Laboratory results: patent US11896035B2, “Chemical mitigants in animal feed and feed ingredients” (priority 2014, dated 2024)
# System: PEDv
# Experiment: PEDv RT-PCR (Ct) in chemically treated, then inoculated feed matrices
# Parameters: species or system Porcine Epidemic Diarrhea virus
# Conditions: room temperature; for Spray Dried Plasma Average CT Count: spray dried animal plasma
# Experimental: In a third study, experiments were conducted to evaluate the effectiveness of various chemical mitigation strategies on post-processing contamination of PEDv in feed and feed components. Treatments were arranged in a 7×4 factorial with 6 chemical treatments plus a control, and 4 feed matrices. […] The 4 feed matrices included: 1) complete swine diet (complete nursery diet), 2) blood meal, 3) porcine meat and bone meal (MBM), and 4) spray-dried animal plasma. The 4 feed treatments×6 chemical treatments (plus 1 control) equaled 28-1 kg batches. The feed matrices were chemically treated first and then inoculated to represent post-processing contamination. […] There were 3 segregated replicates of each batch for each day of analysis. All samples were stored at room temperature. Untreated control supernant from each of the 4 feed matrixes on day 0 was harvested and aliquots frozen and used as controls for subsequent analysis days Each day these samples were used as laboratory controls to evaluate inter assay variation.
# Samples were analyzed for PEDv by RT-PCR. Analyzed values represent cycle time or cycle threshold (Ct.) before detection, Lower Ct values indicate greater nucleic acid presence, but not necessarily infectivity. Data were analyzed using the GLIMMIX procedure of SAS with fixed effects of chemical treatment, matrix, and time, as well as all interactions.
smiles,measurement,setting,value
"[Na+].[O-][Cl+2]([O-])[O-] [Sodium chlorate, sodium chlorate]",Porcine Blood Meal Average Ct Count,day 0,29
same,Porcine Blood Meal Average Ct Count,day 1,29
same,Porcine Blood Meal Average Ct Count,day 3,31
same,Porcine Blood Meal Average Ct Count,day 7,32
same,Porcine Blood Meal Average Ct Count,day 14,33
same,Porcine Blood Meal Average Ct Count,day 21,36
same,Porcine Blood Meal Average Ct Count,day 42,36
same,Porcine Meat and Bone Meal Average CT Count,day 0,26
same,Porcine Meat and Bone Meal Average CT Count,day 1,25
same,Porcine Meat and Bone Meal Average CT Count,day 3,27
same,Porcine Meat and Bone Meal Average CT Count,day 7,27
same,Porcine Meat and Bone Meal Average CT Count,day 14,28
same,Porcine Meat and Bone Meal Average CT Count,day 21,27
same,Porcine Meat and Bone Meal Average CT Count,day 42,29
same,Spray Dried Plasma Average CT Count,day 0,28
same,Spray Dried Plasma Average CT Count,day 1,26
same,Spray Dried Plasma Average CT Count,day 3,28
same,Spray Dried Plasma Average CT Count,day 7,28
same,Spray Dried Plasma Average CT Count,day 14,28
same,Spray Dried Plasma Average CT Count,day 21,29
same,Spray Dried Plasma Average CT Count,day 42,28
same,Swine Diet Average Ct Count,day 0,28
same,Swine Diet Average Ct Count,day 1,28
same,Swine Diet Average Ct Count,day 3,29
same,Swine Diet Average Ct Count,day 7,30
same,Swine Diet Average Ct Count,day 14,29
same,Swine Diet Average Ct Count,day 21,32
same,Swine Diet Average Ct Count,day 42,32
